# Source: the supplement of paper PMC5908809
# Experiments:
# SNK-6 (IL-2 2.5 ng/mL) [1] = experiment: percent inhibition of viability; higher = more inhibition; details: 72 h
# KHYG-1 (IL-2 2.5 ng/mL) [2] = experiment: as above; details: 72 h
# [3] = test system: normal primary NK cells, pool 3 (3 donors) (IL-2 2.5 ng/mL); experiment: as above; details: 72 h
# IMC-1 (IL-2 20 ng/mL) [4] = experiment: as above; details: 72 h
# NK-92 (IL-2 2.5 ng/mL) [5] = experiment: as above; details: 72 h
# [6] = test system: normal primary NK cells, pool 1 (3 donors) (IL-2 2.5 ng/mL); experiment: as above; details: 72 h
# NKL (IL-2 2.5 ng/mL) [7] = experiment: as above; details: 72 h
# [8] = test system: normal primary NK cells, pool 1 (3 donors), resting (IL-2 0 ng/mL); experiment: as above; details: 72 h
# KAI3 (IL-2 2.5 ng/mL) [9] = experiment: as above; details: 72 h
# NK-YS (IL-2 2.5 ng/mL) [10] = experiment: as above; details: 72 h
# DERL-7 (IL-2 2.5 ng/mL) [11] = experiment: as above; details: 72 h
# [12] = test system: normal primary NK cells, pool 2 (3 donors) (IL-2 2.5 ng/mL); experiment: as above; details: 72 h
# YT (IL-2 2.5 ng/mL) [13] = experiment: as above; details: 72 h
# [14] = test system: normal NK cells expanded with K562-aAPC; experiment: as above; details: 72 h, IL-2 2.5 ng/mL
# Description: (§1)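 Drug sensitivity and resistance testing on K562-aAPC-expanded normal NK cells: 5 concentrations (10-fold steps over a 10,000-fold range), 72 h at 37 °C, viability by CellTiter-Glo normalised to DMSO and benzethonium chloride controls; DSS from the fitted curve.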
# [15] = test system: normal NK cells expanded with K562-aAPC; experiment: drug sensitivity score (DSS) (DSS units); higher = more sensitive; extreme values may be limits of the assay; details: 72 h; IL-2 2.5 ng/mL
# Description: as §1
# SNK-6 (IL-2 2.5 ng/mL) [16] = experiment: as above; details: 72 h
# KHYG-1 (IL-2 2.5 ng/mL) [17] = experiment: as above; details: 72 h
# [18] = test system: normal primary NK cells, pool 3 (3 donors) (IL-2 2.5 ng/mL); experiment: as above; details: 72 h
# IMC-1 (IL-2 20 ng/mL) [19] = experiment: as above; details: 72 h
# NK-92 (IL-2 2.5 ng/mL) [20] = experiment: as above; details: 72 h
# [21] = test system: normal primary NK cells, pool 1 (3 donors) (IL-2 2.5 ng/mL); experiment: as above; details: 72 h
# NKL (IL-2 2.5 ng/mL) [22] = experiment: as above; details: 72 h
# [23] = test system: normal primary NK cells, pool 1 (3 donors), resting (IL-2 0 ng/mL); experiment: as above; details: 72 h
# KAI3 (IL-2 2.5 ng/mL) [24] = experiment: as above; details: 72 h
# NK-YS (IL-2 2.5 ng/mL) [25] = experiment: as above; details: 72 h
# DERL-7 (IL-2 2.5 ng/mL) [26] = experiment: as above; details: 72 h
# [27] = test system: normal primary NK cells, pool 2 (3 donors) (IL-2 2.5 ng/mL); experiment: as above; details: 72 h
# YT (IL-2 2.5 ng/mL) [28] = experiment: as above; details: 72 h
structure (smiles),measurement,setting,value
COc1ccc(CCc2nc3cc(-c4c(C)noc4C)ccc3n2C[C@H](C)N2CCOCC2)cc1Cl [SGC-CBP30] (max concentration tested 25000 nM),percent inhibition of viability,SNK-6 (IL-2 2.5 ng/mL) [1]; 2.5 nM,-3.48%
same,percent inhibition of viability,SNK-6 (IL-2 2.5 ng/mL) [1]; 25 nM,-9.35%
same,percent inhibition of viability,SNK-6 (IL-2 2.5 ng/mL) [1]; 250 nM,6.99%
same,percent inhibition of viability,SNK-6 (IL-2 2.5 ng/mL) [1]; 2500 nM,15.5%
same,percent inhibition of viability,SNK-6 (IL-2 2.5 ng/mL) [1]; 25000 nM,20.9%
same,percent inhibition of viability,KHYG-1 (IL-2 2.5 ng/mL) [2]; 2.5 nM,-1.44%
same,percent inhibition of viability,KHYG-1 (IL-2 2.5 ng/mL) [2]; 25 nM,-8.58%
same,percent inhibition of viability,KHYG-1 (IL-2 2.5 ng/mL) [2]; 250 nM,-1.59%
same,percent inhibition of viability,KHYG-1 (IL-2 2.5 ng/mL) [2]; 2500 nM,16.4%
same,percent inhibition of viability,KHYG-1 (IL-2 2.5 ng/mL) [2]; 25000 nM,99.4%
same,percent inhibition of viability,[3]; 2.5 nM,-5.75%
same,percent inhibition of viability,[3]; 25 nM,-3.57%
same,percent inhibition of viability,[3]; 250 nM,2.2%
same,percent inhibition of viability,[3]; 2500 nM,8.83%
same,percent inhibition of viability,[3]; 25000 nM,68.9%
same,percent inhibition of viability,IMC-1 (IL-2 20 ng/mL) [4]; 2.5 nM,-7.53%
same,percent inhibition of viability,IMC-1 (IL-2 20 ng/mL) [4]; 25 nM,-9.31%
same,percent inhibition of viability,IMC-1 (IL-2 20 ng/mL) [4]; 250 nM,-8.36%
same,percent inhibition of viability,IMC-1 (IL-2 20 ng/mL) [4]; 2500 nM,-20.2%
same,percent inhibition of viability,IMC-1 (IL-2 20 ng/mL) [4]; 25000 nM,35.3%
same,percent inhibition of viability,NK-92 (IL-2 2.5 ng/mL) [5]; 2.5 nM,-16.2%
same,percent inhibition of viability,NK-92 (IL-2 2.5 ng/mL) [5]; 25 nM,-20.5%
same,percent inhibition of viability,NK-92 (IL-2 2.5 ng/mL) [5]; 250 nM,-26.2%
same,percent inhibition of viability,NK-92 (IL-2 2.5 ng/mL) [5]; 2500 nM,-17.7%
same,percent inhibition of viability,NK-92 (IL-2 2.5 ng/mL) [5]; 25000 nM,64.4%
same,percent inhibition of viability,[6]; 2.5 nM,-4.81%
same,percent inhibition of viability,[6]; 25 nM,2.68%
same,percent inhibition of viability,[6]; 250 nM,13%
same,percent inhibition of viability,[6]; 2500 nM,33.8%
same,percent inhibition of viability,[6]; 25000 nM,96.6%
same,percent inhibition of viability,NKL (IL-2 2.5 ng/mL) [7]; 2.5 nM,0.5%
same,percent inhibition of viability,NKL (IL-2 2.5 ng/mL) [7]; 25 nM,1.11%
same,percent inhibition of viability,NKL (IL-2 2.5 ng/mL) [7]; 250 nM,1.38%
same,percent inhibition of viability,NKL (IL-2 2.5 ng/mL) [7]; 2500 nM,53.1%
same,percent inhibition of viability,NKL (IL-2 2.5 ng/mL) [7]; 25000 nM,72.8%
same,percent inhibition of viability,[8]; 2.5 nM,18.2%
same,percent inhibition of viability,[8]; 25 nM,2.19%
same,percent inhibition of viability,[8]; 250 nM,20.6%
same,percent inhibition of viability,[8]; 2500 nM,19.9%
same,percent inhibition of viability,[8]; 25000 nM,86%
same,percent inhibition of viability,KAI3 (IL-2 2.5 ng/mL) [9]; 2.5 nM,1.53%
same,percent inhibition of viability,KAI3 (IL-2 2.5 ng/mL) [9]; 25 nM,-3.88%
same,percent inhibition of viability,KAI3 (IL-2 2.5 ng/mL) [9]; 250 nM,-18.5%
same,percent inhibition of viability,KAI3 (IL-2 2.5 ng/mL) [9]; 2500 nM,-12.8%
same,percent inhibition of viability,KAI3 (IL-2 2.5 ng/mL) [9]; 25000 nM,51.8%
same,percent inhibition of viability,NK-YS (IL-2 2.5 ng/mL) [10]; 2.5 nM,-1.97%
same,percent inhibition of viability,NK-YS (IL-2 2.5 ng/mL) [10]; 25 nM,-5.16%
same,percent inhibition of viability,NK-YS (IL-2 2.5 ng/mL) [10]; 250 nM,0.38%
same,percent inhibition of viability,NK-YS (IL-2 2.5 ng/mL) [10]; 2500 nM,22.5%
same,percent inhibition of viability,NK-YS (IL-2 2.5 ng/mL) [10]; 25000 nM,67.9%
same,percent inhibition of viability,DERL-7 (IL-2 2.5 ng/mL) [11]; 2.5 nM,0.1%
same,percent inhibition of viability,DERL-7 (IL-2 2.5 ng/mL) [11]; 25 nM,3.95%
same,percent inhibition of viability,DERL-7 (IL-2 2.5 ng/mL) [11]; 250 nM,12.3%
same,percent inhibition of viability,DERL-7 (IL-2 2.5 ng/mL) [11]; 2500 nM,60.5%
same,percent inhibition of viability,DERL-7 (IL-2 2.5 ng/mL) [11]; 25000 nM,96.1%
same,percent inhibition of viability,[12]; 2.5 nM,-5.14%
same,percent inhibition of viability,[12]; 25 nM,-1.93%
same,percent inhibition of viability,[12]; 250 nM,8.85%
same,percent inhibition of viability,[12]; 2500 nM,24.7%
same,percent inhibition of viability,[12]; 25000 nM,90.1%
same,percent inhibition of viability,YT (IL-2 2.5 ng/mL) [13]; 2.5 nM,-1.31%
same,percent inhibition of viability,YT (IL-2 2.5 ng/mL) [13]; 25 nM,-7.71%
same,percent inhibition of viability,YT (IL-2 2.5 ng/mL) [13]; 250 nM,-7.11%
same,percent inhibition of viability,YT (IL-2 2.5 ng/mL) [13]; 2500 nM,10.1%
same,percent inhibition of viability,YT (IL-2 2.5 ng/mL) [13]; 25000 nM,70%
same,percent inhibition of viability,[14]; 2.5 nM,-5.48%
same,percent inhibition of viability,[14]; 25 nM,-4.45%
same,percent inhibition of viability,[14]; 250 nM,-3.35%
same,percent inhibition of viability,[14]; 2500 nM,8.12%
same,percent inhibition of viability,[14]; 25000 nM,84.2%
same,drug sensitivity score,[15],5.98
same,drug sensitivity score,SNK-6 (IL-2 2.5 ng/mL) [16],2.41
same,drug sensitivity score,KHYG-1 (IL-2 2.5 ng/mL) [17],8.22
same,drug sensitivity score,[18],5.27
same,drug sensitivity score,IMC-1 (IL-2 20 ng/mL) [19],1.04
same,drug sensitivity score,NK-92 (IL-2 2.5 ng/mL) [20],2.67
same,drug sensitivity score,[21],9.22
same,drug sensitivity score,NKL (IL-2 2.5 ng/mL) [22],10.4
same,drug sensitivity score,[23],7.45
same,drug sensitivity score,KAI3 (IL-2 2.5 ng/mL) [24],2.09
same,drug sensitivity score,NK-YS (IL-2 2.5 ng/mL) [25],6.98
same,drug sensitivity score,DERL-7 (IL-2 2.5 ng/mL) [26],13.3
same,drug sensitivity score,[27],8.45
same,drug sensitivity score,YT (IL-2 2.5 ng/mL) [28],5.56
